Results: patent US20100022553A1, “Therapeutic Combination Comprising an Aurora Kinase Inhibitor and Imatinib” (NERVIANO MEDICAL SCIENCES S.R.L., priority 2008, published 2010)

Experiments:
[1] = molecular target: T315I mutation of Abl (Bcr-Abl) (Homo sapiens, UniProt P00519, T315I); settings: cited from earlier work
[2] = test system: Human myeloid leukemia K-562 cell line; settings: K562 s.c. in SCID mice, Imatinib 100 mg/kg per os, days 7-15; for Time to reach 1 g: Compound 1 15 mg/kg intraperitoneally twice a day; for T-C: delay of treated vs control tumors to reach 1 g, Compound 1 15 mg/kg i.p.
Experimental: SCID female mice, from Harlan (Italy), were maintained in cages with paper filter cover, food and bedding sterilized and water acidified.
For in vivo experiments 10^7 K562 cells were implanted subcutaneously in SCID mice.
Tumor growth and body weight were measured every 3 days. Tumor growth was assessed by caliper. […] This delay (T-C value) was defined as the difference of time (in days) required for the treatment group (T) and the control group(C) tumors to reach a predetermined size (1 g).
Toxicity was evaluated on the basis of body weight reduction.

Cc1ccc(NC(=O)c2ccc(CN3CC[C@H](N(C)C)C3)c(C(F)(F)F)c2)cc1Nc1nccc(-c2cncnc2)n1 [Inno-406]
activity against the T315I mutation [1]: inactive

Cc1ccc(NC(=O)c2ccc(CN3CCN(C)CC3)cc2)cc1Nc1nccc(-c2cccnc2)n1 [Imatinib]
Time to reach 1 g [2]: 25.1 days
T-C [2]: 9.3 days

CO[C@@H](C(=O)N1Cc2[nH]nc(NC(=O)c3ccc(N4CCN(C)CC4)cc3)c2C1)c1ccccc1 [Compound 1, N-[5-(2-Methoxy-2-phenyl-acetyl)-1,4,5,6-tetrahydro-pyrrolo[3,4-c]pyrazol-3-yl]-4-(4-methyl-piperazin-1yl)-benzamide]
Time to reach 1 g [2]: 27.3 days
T-C [2]: 11.5 days
